Data taken from article PMC10797613 (ACS Chemical Neuroscience, 2024).
Values joined by “and” are separate entries in the source; they are usually repeats but may differ in a detail not shown here. Equal entries are not always repeated. Where two headings read alike, the source gives them in different places.

Key:
[1] = test system: C57BL/6J mice; assay: mouse head twitch response; assay type: in vivo; details: for time of peak HTR effects / Emax(HTR events/30 min) / ED50(mg/kg s.c.) for HTR: mice; for time of peak HTR effects: post drug administration; for Emax(HTR events/30 min) / ED50(mg/kg s.c.) for HTR: s.c.; for Emax(HTR events/30 min): maximum effect; for ED50(mg/kg s.c.) for HTR: 30 min session, ascending phase of HTR curve; for HTR activity (in words): mouse, in vivo
[2] = target: H1 (Homo sapiens, UniProt P35367); assay: biochemical; assay type: binding
H1, sequence (P35367 whole entry): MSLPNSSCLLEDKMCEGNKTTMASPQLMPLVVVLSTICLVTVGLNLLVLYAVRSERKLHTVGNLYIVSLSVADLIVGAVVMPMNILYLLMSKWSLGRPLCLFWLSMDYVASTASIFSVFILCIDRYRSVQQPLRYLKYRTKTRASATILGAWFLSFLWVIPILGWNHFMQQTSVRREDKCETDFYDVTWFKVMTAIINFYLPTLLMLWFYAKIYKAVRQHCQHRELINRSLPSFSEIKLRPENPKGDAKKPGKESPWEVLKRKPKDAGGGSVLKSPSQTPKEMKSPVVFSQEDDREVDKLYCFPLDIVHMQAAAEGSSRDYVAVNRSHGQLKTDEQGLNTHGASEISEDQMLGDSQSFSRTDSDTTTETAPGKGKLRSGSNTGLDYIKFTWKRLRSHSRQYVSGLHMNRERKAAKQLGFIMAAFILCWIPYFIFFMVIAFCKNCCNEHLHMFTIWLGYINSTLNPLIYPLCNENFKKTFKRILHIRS

[3] = target: 5-HT2B receptor (Homo sapiens, UniProt P41595); assay: Gαq-mediated calcium flux assay; assay type: cell-based; details: 95% CI in brackets; * = potentially ambiguous
5-HT2B receptor, sequence (P41595 whole entry): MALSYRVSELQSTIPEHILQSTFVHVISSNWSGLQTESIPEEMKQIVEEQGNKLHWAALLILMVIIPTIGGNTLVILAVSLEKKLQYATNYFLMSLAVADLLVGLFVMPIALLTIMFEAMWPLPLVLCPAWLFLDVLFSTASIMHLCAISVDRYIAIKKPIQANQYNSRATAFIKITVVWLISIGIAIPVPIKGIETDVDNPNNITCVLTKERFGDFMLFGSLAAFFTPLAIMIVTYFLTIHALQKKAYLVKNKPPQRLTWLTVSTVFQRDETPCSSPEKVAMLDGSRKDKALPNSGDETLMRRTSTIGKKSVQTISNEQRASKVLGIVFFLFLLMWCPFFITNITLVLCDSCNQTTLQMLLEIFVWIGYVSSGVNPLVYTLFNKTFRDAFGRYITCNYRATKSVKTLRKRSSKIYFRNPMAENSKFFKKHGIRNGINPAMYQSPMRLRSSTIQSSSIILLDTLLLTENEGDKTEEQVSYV

[4] = test system: C57BL/6J mice; assay: locomotor activity; assay type: in vivo, mouse; details: s.c., 30 min testing session
[5] = target: 5-HT2A receptor (Homo sapiens, UniProt P28223); assay: Gαq-mediated calcium flux assay; assay type: cell-based; details: read-out: Emax (% 5-HT) 5-HT2A calcium flux, 95% CI in brackets
5-HT2A receptor, sequence (P28223 whole entry): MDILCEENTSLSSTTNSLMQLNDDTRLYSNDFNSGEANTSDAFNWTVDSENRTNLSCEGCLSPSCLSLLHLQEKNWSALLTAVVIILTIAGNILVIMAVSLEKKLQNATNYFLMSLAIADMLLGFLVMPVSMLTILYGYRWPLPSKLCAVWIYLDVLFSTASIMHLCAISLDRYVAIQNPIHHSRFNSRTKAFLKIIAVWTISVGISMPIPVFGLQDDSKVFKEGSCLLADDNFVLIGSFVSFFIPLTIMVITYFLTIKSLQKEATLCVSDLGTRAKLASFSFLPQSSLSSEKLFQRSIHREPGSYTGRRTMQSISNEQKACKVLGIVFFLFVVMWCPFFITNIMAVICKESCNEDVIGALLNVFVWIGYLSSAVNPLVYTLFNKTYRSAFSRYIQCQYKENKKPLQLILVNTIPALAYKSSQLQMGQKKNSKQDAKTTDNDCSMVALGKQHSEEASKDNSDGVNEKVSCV

[6] = target: T1, 5-HT2C receptor (Homo sapiens, UniProt P28335); assay: Gαq-mediated calcium flux assay; assay type: cell-based
T1 sequence (P28335 33-458): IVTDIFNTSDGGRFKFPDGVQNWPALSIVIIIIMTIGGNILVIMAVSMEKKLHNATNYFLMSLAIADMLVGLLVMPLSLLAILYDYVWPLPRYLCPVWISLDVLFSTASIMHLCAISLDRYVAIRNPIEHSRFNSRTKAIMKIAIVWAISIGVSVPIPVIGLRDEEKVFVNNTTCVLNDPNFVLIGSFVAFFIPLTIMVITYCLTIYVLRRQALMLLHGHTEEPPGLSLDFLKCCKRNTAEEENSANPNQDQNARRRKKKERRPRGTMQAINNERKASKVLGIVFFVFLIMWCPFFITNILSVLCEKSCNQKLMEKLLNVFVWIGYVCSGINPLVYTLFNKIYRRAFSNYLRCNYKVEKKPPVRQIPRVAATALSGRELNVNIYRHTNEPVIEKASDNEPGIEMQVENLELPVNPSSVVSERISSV

[7] = target: 5-HT1B (Homo sapiens, UniProt P28222); assay: GPCR Tango assay measuring β-arrestin recruitment; assay type: cell-based; details: up to 50 μM
5-HT1B, sequence (P28222 whole entry): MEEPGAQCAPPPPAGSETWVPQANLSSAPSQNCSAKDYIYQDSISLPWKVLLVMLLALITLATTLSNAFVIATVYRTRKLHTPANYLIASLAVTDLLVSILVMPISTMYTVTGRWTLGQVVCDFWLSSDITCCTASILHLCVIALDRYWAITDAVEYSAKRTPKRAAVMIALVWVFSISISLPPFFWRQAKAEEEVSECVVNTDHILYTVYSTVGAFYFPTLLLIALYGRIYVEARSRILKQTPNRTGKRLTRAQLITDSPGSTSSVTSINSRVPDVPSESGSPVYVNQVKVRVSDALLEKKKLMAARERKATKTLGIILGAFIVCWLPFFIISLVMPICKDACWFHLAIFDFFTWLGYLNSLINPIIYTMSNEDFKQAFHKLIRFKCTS

[8] = test system: C57BL/6J mice; assay: body temperature change from pre to post session in mice; assay type: in vivo, mouse; details: highest dose tested
[9] = target: 5-HT7A (Homo sapiens, UniProt P34969); assay: GPCR Tango assay measuring β-arrestin recruitment; assay type: cell-based; details: EC50 5-HT7A Tango, 95% CI in brackets; * = ambiguous
5-HT7A, sequence (P34969 1-445 isoform P34969-2): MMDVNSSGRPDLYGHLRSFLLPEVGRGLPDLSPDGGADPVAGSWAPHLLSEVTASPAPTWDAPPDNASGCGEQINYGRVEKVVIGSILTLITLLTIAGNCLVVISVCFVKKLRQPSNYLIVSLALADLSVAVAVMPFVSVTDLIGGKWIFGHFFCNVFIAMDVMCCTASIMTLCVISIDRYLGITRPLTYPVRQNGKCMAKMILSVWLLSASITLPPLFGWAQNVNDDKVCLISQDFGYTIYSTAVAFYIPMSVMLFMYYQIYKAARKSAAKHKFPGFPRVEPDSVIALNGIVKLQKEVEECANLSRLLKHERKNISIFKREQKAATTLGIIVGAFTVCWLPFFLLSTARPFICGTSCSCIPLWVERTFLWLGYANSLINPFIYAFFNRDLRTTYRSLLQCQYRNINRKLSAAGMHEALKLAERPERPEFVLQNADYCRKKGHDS

[10] = test system: C57BL/6J mice; details: cited from earlier work
[11] = s.c., identical testing conditions

Row | SMILES | time of peak HTR effects [1] [min] | Emax(HTR events/30 min) [1] | effect on locomotor activity (in words) [4] | HTR activity (in words) [1] | 5-HT2C functional activity (in words) [6] | other results
1 | C=CCNCCc1c[nH]c2cccc(O)c12.C=CCNCCc1c[nH]c2cccc(O)c12.O=C(O)/C=C/C(=O)O [4-HO-NALT, 3-(2-(Allylamino)ethyl)-1H-indol-4-ol Hemifumarate] | 5 to 15 | 77 HTR events/30 min and 76.6 HTR events/30 min |  |  |  | Ki [2]: 467 nM; Emax (% 5-HT) 5-HT2B calcium flux [3]: 88 % 5-HT
2 | O=C(O)/C=C/C(=O)O.Oc1cccc2[nH]cc(CCNCc3ccccc3)c12 [4-HO-NBnT, 3-(2-(Benzylamino)ethyl)-1H-indol-4-ol Fumarate] | 5 to 15 | 26.1 HTR events/30 min | reduced the total locomotor activity |  |  | decrease in HTR potency relative to psilocin ([1]; mg/kg basis): 10 fold; Emax [5]: 70%; Emax (% 5-HT) 5-HT2B calcium flux [3]: 11 % 5-HT
3 | CCNCCc1c[nH]c2cccc(O)c12.CCNCCc1c[nH]c2cccc(O)c12.O=C(O)CCC(=O)O [4-HO-NET, 3-(2-(Ethylamino)ethyl)-1H-indol-4-ol Hemisuccinate] | 15 to 25 | 39.8 HTR events/30 min | reduced the total locomotor activity |  |  | delay of maximum HTR occurrence compared to 4-HO-NALT ([1]; at equivalent doses): 10 min
4 | CCCNCCc1c[nH]c2cccc(O)c12.CCCNCCc1c[nH]c2cccc(O)c12.O=C(O)/C=C/C(=O)O [4-HO-NPT, 3-(2-(Propylamino)ethyl)-1H-indol-4-ol Hemifumarate] | 5 to 15 | 52 HTR events/30 min and 52.1 HTR events/30 min | reduced the total locomotor activity |  |  | ED50(mg/kg s.c.) for HTR [1]: 2.9 mg/kg
5 | O=C(O)/C=C/C(=O)O.Oc1cccc2[nH]cc(CCNC3CCCCC3)c12 [4-HO-NcHT, 3-(2-(Cyclohexylamino)ethyl)-1H-indol-4-ol Fumarate] |  |  |  | inactive | inactive | 5-HT1B agonist activity Tango (in words) [7]: inactive
6 | CC(C)NCCc1c[nH]c2cccc(O)c12.O=C(O)/C=C/C(=O)O [4-HO-NiPT, 3-(2-(Isopropylamino)ethyl)-1H-indol-4-ol Fumarate] | 15 to 25 | 27 HTR events/30 min and 27.5 HTR events/30 min |  |  | weak partial agonists | ED50(mg/kg s.c.) for HTR [1]: 3.3 mg/kg; hypothermia Emax [8]: −1.7 °C
7 | CCCCNCCc1c[nH]c2cccc(O)c12.O=C(O)/C=C/C(=O)O [4-HO-NnBT, 3-(2-(Butylamino)ethyl)-1H-indol-4-ol Fumarate] |  |  | reduced the total locomotor activity | inactive | weak partial agonists | EC50 [9]: 1000 nM
8 | CC(C)(C)NCCc1c[nH]c2cccc(O)c12.CC(C)(C)NCCc1c[nH]c2cccc(O)c12.O=C(O)/C=C/C(=O)O [4-HO-NtBT, 3-(2-(tert-Butylamino)ethyl)-1H-indol-4-ol Hemifumarate] |  |  |  | inactive | inactive | 5-HT1B agonist activity Tango (in words) [7]: inactive
9 | CNCCc1c[nH]c2cccc(O)c12 [norpsilocin, 4-hydroxy-N-methyltryptamine] |  |  |  |  |  | ED50(mg/kg s.c.) for HTR [10, 11]: >30 mg/kg; HTR activity (in words) ([10]; same assay setup): failed to induce psychedelic-like HTR activity
10 | CN(C)CCc1c[nH]c2cccc(O)c12 [psilocin, 4-hydroxy-N,N-dimethyltryptamine] |  |  |  |  |  | reported HTR ED50 potency [10]: 0.11 to 0.17 mg/kg; ED50(mg/kg s.c.) for HTR [10, 11]: 0.11 mg/kg; Emax(HTR events/30 min) [10, 11]: 23 HTR events/30 min
